Test results reported in US20100076489A1, “WOUND CLOSURE MATERIAL” (priority 2007, published 2010).

Test: Saturation concentration of paclitaxel in various release media (HPLC)
Format: physicochemical
Description: Paclitaxel concentrations were then measured with a Waters 2965 series HPLC (commercially available from Waters Corporation). A 20 μL from each sample was injected into a Phenomenex ODS-2 INERTSIL (5.0 μm, 150 mm×4.6, from Phenomenex) which was maintained at about 30° C. The sample runs were conducted for about 10 minutes, with a flow rate at 0.8 mL/minute. The mobile phase included about 55% acetonitrile and 45% water (v/v). The paclitaxel was detected at a wavelength of about 230 nm with a photodiode array detector (Waters series 2996, commercially available from Waters Corporation).
A release medium, including phosphate buffered saline (PBS) with about 0.1% of a polyethoxylated fatty acid ester of sorbitan (also referred to as polysorbates, commercially available as TWEEN™ 80) (w/v) and about 0.5% sodium dodecylsulfate (SDS) (w/v) was prepared as follows. About 100 mL of 10×PBS concentrate was added to a 1 liter volumetric flask. The flask was filled to the line with Milli-Q water and stirred for about 15 minutes. To the solution, about 1 mL of TWEEN™ 80 was added and stirred with a magnetic stir bar until the TWEEN™ 80 was completely dissolved. Approximately 5 grams of sodium dodecylsulfate was then added and the solution was stirred for about 45 minutes. The pH of the solution was tested and found to be about 7.3.
The saturation concentration of paclitaxel in various release media was determined using the previously mentioned high pressure liquid chromatography method. In addition to the release media including PBS with about 0.1% TWEEN™ 80 and 0.5% Sodium Dodecyl Sulfate described above, other media were similarly tested. The additional media included PBS with about 0.1% by weight PLURAFAC® surfactant (commercially available from BASF), PBS with about 0.1% by weight TWEEN™ 80, and PBS with about 0.8% by weight Dimethyl-b-Cyclodextrin. A summary of the results is provided below in Table 1.

## CC(=O)O[C@H]1C(=O)[C@@]2(C)[C@H]([C@H](OC(=O)c3ccccc3)[C@]3(O)C[C@H](OC(=O)[C@H](O)[C@@H](NC(=O)c4ccccc4)c4ccccc4)C(C)=C1C3(C)C)[C@]1(OC(C)=O)CO[C@@H]1C[C@@H]2O [Paclitaxel, paclitaxel]
Media: PBS w/0.1% Plurafac
  Saturation concentration of Paclitaxel: 0.1 ± .01 µg/mL
Media: PBS w/0.1% TWEEN 80
  Saturation concentration of Paclitaxel: 2.2 ± 0.2 µg/mL
Media: PBS w/0.1% TWEEN 80 and 0.5% Sodium Dodecyl Sulfate
  Saturation concentration of Paclitaxel: 52.8 ± 6.4 µg/mL
Media: PBS w/0.8% Dimethyl-b-Cyclodextrin
  Saturation concentration of Paclitaxel: 7.3 µg/mL
